≈ marks a conversion by molar mass, not a printed value.
What was measured:
Assay type in all cases: cell-based
[1] = test system: Staphylococcus aureus FDA 209PJc-1; assay: Antibacterial activity, agar-dilution MIC, organism No. 1; details: Staphylococcus aureus, FDA209PJC1; Organism No. 1, bouillon-agar; read-out: Minimum Inhibitory Concentration
Summary of the method: (§1)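 An agar-dilution procedure on bouillon-agar medium was applied, and each MIC was recorded as micrograms of specimen per ml of medium.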

[2] = test system: Staphylococcus aureus Terajima; assay: Antibacterial activity, agar-dilution MIC, organism No. 2; details: Staphylococcus aureus; Organism No. 2, bouillon-agar; read-out: Minimum Inhibitory Concentration
Summary of the method: as §1

[3] = test system: Staphylococcus aureus MS 353; assay: Antibacterial activity, agar-dilution MIC, organism No. 3; details: Staphylococcus aureus, MS353; Organism No. 3, bouillon-agar; read-out: Minimum Inhibitory Concentration
Summary of the method: as §1

[4] = test system: Streptococcus pyogenes Cook; assay: Antibacterial activity, agar-dilution MIC, organism No. 4; details: Streptococcus pyogenes; Organism No. 4, bouillon-agar; read-out: Minimum Inhibitory Concentration
Summary of the method: as §1

[5] = test system: Escherichia coli NIHJ-JC-2; assay: Antibacterial activity, agar-dilution MIC, organism No. 5; details: Escherichia coli, NIHJJC2; Organism No. 5, bouillon-agar; read-out: Minimum Inhibitory Concentration
Summary of the method: as §1

[6] = test system: Escherichia coli K12 C600 IAM 1264; assay: Antibacterial activity, agar-dilution MIC, organism No. 6; details: Escherichia coli, IAM1264; Organism No. 6, bouillon-agar; read-out: Minimum Inhibitory Concentration
Summary of the method: as §1

[7] = test system: Klebsiella pneumoniae PCI-602; assay: Antibacterial activity, agar-dilution MIC, organism No. 7; details: Klebsiella pneumoniae, PCI602; Organism No. 7, bouillon-agar; read-out: Minimum Inhibitory Concentration
Summary of the method: as §1

[8] = test system: Salmonella typhimurium IID 971; assay: Antibacterial activity, agar-dilution MIC, organism No. 8; details: Salmonella enterica; Organism No. 8, bouillon-agar; read-out: Minimum Inhibitory Concentration
Summary of the method: as §1

Salmonella typhi 901 = assay: Antibacterial activity, agar-dilution MIC, organism No. 9; details: Salmonella enterica, TYPHI, read-out: Minimum Inhibitory Concentration
Summary of the method: as §1

[9] = test system: Salmonella paratyphi-A 1015; assay: Antibacterial activity, agar-dilution MIC, organism No. 10; details: Salmonella enterica, PARATYPHI, read-out: Minimum Inhibitory Concentration
Summary of the method: as §1

[10] = test system: Salmonella shottmuelleri 8006; assay: Antibacterial activity, agar-dilution MIC, organism No. 11; details: Salmonella, 8006; Organism No. 11, bouillon-agar; read-out: Minimum Inhibitory Concentration
Summary of the method: as §1

[11] = test system: Salmonella enteritidis G 14; assay: Antibacterial activity, agar-dilution MIC, organism No. 12; details: Salmonella enterica, ENTERITIDIS; Organism No. 12, bouillon-agar; read-out: Minimum Inhibitory Concentration
Summary of the method: as §1

[12] = test system: Serratia marcescens IAM 1184; assay: Antibacterial activity, agar-dilution MIC, organism No. 13; details: Serratia marcescens, IAM1184; Organism No. 13, bouillon-agar; read-out: Minimum Inhibitory Concentration
Summary of the method: as §1

[13] = test system: Bacillus subtilis ATCC 6633; assay: Antibacterial activity, agar-dilution MIC, organism No. 14; details: Bacillus subtilis, ATCC6633; Organism No. 14, bouillon-agar; read-out: Minimum Inhibitory Concentration
Summary of the method: as §1

[14] = test system: Pseudomonas aeruginosa IFO 3445; assay: Antibacterial activity, agar-dilution MIC, organism No. 15; details: Pseudomonas aeruginosa, IFO3445; Organism No. 15, bouillon-agar; read-out: Minimum Inhibitory Concentration
Summary of the method: as §1

[15] = test system: Pseudomonas aeruginosa NCTC 10490; assay: Antibacterial activity, agar-dilution MIC, organism No. 16; details: Pseudomonas aeruginosa, NCTC10490; Organism No. 16, bouillon-agar; read-out: Minimum Inhibitory Concentration
Summary of the method: as §1

[16] = test system: Pseudomonas aeruginosa PAO 1; assay: Antibacterial activity, agar-dilution MIC, organism No. 17; details: Pseudomonas aeruginosa, PAO1; Organism No. 17, bouillon-agar; read-out: Minimum Inhibitory Concentration
Summary of the method: as §1

[17] = test system: Proteus morganii IFO 3848; assay: Antibacterial activity, agar-dilution MIC, organism No. 18; details: Morganella morganii, IFO3848; Organism No. 18, bouillon-agar; read-out: Minimum Inhibitory Concentration
Summary of the method: as §1

[18] = test system: Proteus mirabilis IFO 3849; assay: Antibacterial activity, agar-dilution MIC, organism No. 19; details: Proteus mirabilis, IFO3849; Organism No. 19, bouillon-agar; read-out: Minimum Inhibitory Concentration
Summary of the method: as §1

Proteus vulgaris OX-19 = assay: Antibacterial activity, agar-dilution MIC, organism No. 20; details: Proteus vulgaris, OX19; Organism No. 20, bouillon-agar; read-out: Minimum Inhibitory Concentration
Summary of the method: as §1

Proteus vulgaris HX-19 = assay: Antibacterial activity, agar-dilution MIC, organism No. 21; details: Proteus vulgaris, HX19; Organism No. 21, bouillon-agar; read-out: Minimum Inhibitory Concentration
Summary of the method: as §1

[19] = test system: Proteus rettgeri IFO 3850; assay: Antibacterial activity, agar-dilution MIC, organism No. 22; details: Providencia rettgeri, IFO3850; Organism No. 22, bouillon-agar; read-out: Minimum Inhibitory Concentration
Summary of the method: as §1

[20] = test system: Enterobacter aerogenes ATCC 13048; assay: Antibacterial activity, agar-dilution MIC, organism No. 23; details: Klebsiella aerogenes, ATCC13048; Organism No. 23, bouillon-agar; read-out: Minimum Inhibitory Concentration
Summary of the method: as §1

Enterobacter cloacae 963 = assay: Antibacterial activity, agar-dilution MIC, organism No. 24; details: Enterobacter cloacae, 963; Organism No. 24, bouillon-agar; read-out: Minimum Inhibitory Concentration
Summary of the method: as §1

[21] = test system: Micrococcus luteus ATCC 9341; assay: Antibacterial activity, agar-dilution MIC, organism No. 25; details: Micrococcus luteus, ATCC9341; Organism No. 25, bouillon-agar; read-out: Minimum Inhibitory Concentration
Summary of the method: as §1

[22] = test system: Streptococcus pyogenes IFO 3340; assay: Antibacterial activity, agar-dilution MIC, organism No. 26; details: Streptococcus pyogenes, IFO3340; Organism No. 26, bouillon-agar; read-out: Minimum Inhibitory Concentration
Summary of the method: as §1

[23] = test system: Streptococcus faecium IFO 3826; assay: Antibacterial activity, agar-dilution MIC, organism No. 27; details: Enterococcus faecium, IFO3826; Organism No. 27, bouillon-agar; read-out: Minimum Inhibitory Concentration
Summary of the method: as §1

[24] = test system: Mycoplasma pneumoniae IID817; assay: Antimycoplasmal activity, MIC by phenol red colour change, organism No. 28; details: Mycoplasma, IID817; Organism No. 28, PPLO broth + 1% glucose, 37° C.; read-out: Minimum Inhibitory Concentration (MIC)
Protocol: Mycoplasma pneumoniae IID817 was used as the test microorganism in a culture medium prepared by adding 1% of glucose to "PPLO broth (manufactured by Difco Co.) liquid culture medium" at 37° C. with phenol red as an indicator, thereby culturing the test microorganism.

[25] = test system: Candida albicans IAM 4905; assay: Antifungal activity, agar-dilution MIC, organism No. 29; details: Candida albicans, IAM4905; Organism No. 29, bouillon-agar; read-out: Minimum Inhibitory Concentration
Summary of the method: as §1

[26] = test system: Aspergillus niger IFO 6342; assay: Antifungal activity, agar-dilution MIC, organism No. 30; details: Aspergillus niger, IFO6342; Organism No. 30, bouillon-agar; read-out: Minimum Inhibitory Concentration
Summary of the method: as §1

Row | Compound | MIC [1] [µg/mL] | MIC [2] [µg/mL] | MIC [3] [µg/mL] | MIC [4] [µg/mL] | MIC [5] [µg/mL] | MIC [6] [µg/mL] | MIC [7] [µg/mL] | MIC [8] [µg/mL] | MIC (Salmonella typhi 901) [µg/mL] | MIC [9] [µg/mL] | MIC [10] [µg/mL] | MIC [11] [µg/mL] | MIC [12] [µg/mL] | MIC [13] [µg/mL] | MIC [14] [µg/mL] | MIC [15] [µg/mL] | MIC [16] [µg/mL] | MIC [17] [µg/mL] | MIC [18] [µg/mL] | MIC (Proteus vulgaris OX-19) [µg/mL] | other results
1 | [C-]#[N+]C12CC3(/C=C/C(N)=O)OC3C1O2 (stereo not drawn) [Compound No. 19] | 6.25 (≈ 32.5 µM) | 25 (≈ 130 µM) | 6.25 (≈ 32.5 µM) | 100 (≈ 520 µM) | 6.25 (≈ 32.5 µM) | 6.25 (≈ 32.5 µM) | 12.5 (≈ 65 µM) | 12.5 (≈ 65 µM) | 1.56 (≈ 8.12 µM) | 6.25 (≈ 32.5 µM) | 12.5 (≈ 65 µM) | 3.13 (≈ 16.3 µM) | 50 (≈ 260 µM) | 50 (≈ 260 µM) | 100 (≈ 520 µM) | > 200 | 200 (≈ 1040 µM) | 3.13 (≈ 16.3 µM) | 50 (≈ 260 µM) | 3.13 (≈ 16.3 µM) | MIC (Proteus vulgaris HX-19): 1.56 µg/mL (≈ 8.12 µM); MIC [19]: 6.25 µg/mL (≈ 32.5 µM); MIC [20]: 100 µg/mL (≈ 520 µM); MIC (Enterobacter cloacae 963): 6.25 µg/mL (≈ 32.5 µM); MIC [21]: 25 µg/mL (≈ 130 µM); MIC [22]: 6.25 µg/mL (≈ 32.5 µM); MIC [23]: 100 µg/mL (≈ 520 µM); MIC [24]: < 0.2 µg/mL; MIC [25]: 12.5 µg/mL (≈ 65 µM); MIC [26]: 6.25 µg/mL (≈ 32.5 µM)
2 | [C-]#[N+]C12CC3(/C=C/C(=O)OCC(=O)c4ccc(Cl)cc4)OC3C1O2 (stereo not drawn) [compound 5] | 0.05 (≈ 0.145 µM) | 0.78 (≈ 2.26 µM) | 0.78 (≈ 2.26 µM) | 12.5 (≈ 36.2 µM) | 6.25 (≈ 18.1 µM) | < 0.05 | 6.25 (≈ 18.1 µM) | 6.25 (≈ 18.1 µM) | 3.13 (≈ 9.05 µM) | < 0.05 | < 0.05 | 3.13 (≈ 9.05 µM) | > 100 | 12.5 (≈ 36.2 µM) | > 100 | > 100 | > 100 | 100 (≈ 289 µM) | 100 (≈ 289 µM) | 0.39 (≈ 1.13 µM) | MIC (Proteus vulgaris HX-19): 0.39 µg/mL (≈ 1.13 µM); MIC [19]: 100 µg/mL (≈ 289 µM); MIC [20]: 100 µg/mL (≈ 289 µM); MIC (Enterobacter cloacae 963): 0.1 µg/mL (≈ 0.289 µM); MIC [21]: < 0.05 µg/mL; MIC [22]: 1.56 µg/mL (≈ 4.51 µM); MIC [23]: 12.5 µg/mL (≈ 36.2 µM); MIC [24]: < 0.05 µg/mL; MIC [25]: 1.56 µg/mL (≈ 4.51 µM); MIC [26]: 6.25 µg/mL (≈ 18.1 µM)
3 | [C-]#[N+]C12CC3(/C=C/C(=O)OCC(=O)c4ccc(C)cc4)OC3C1O2 (stereo not drawn) [compound 6] | 0.39 (≈ 1.2 µM) | 25 (≈ 76.8 µM) | 0.78 (≈ 2.4 µM) | > 100 | > 100 | > 100 | 50 (≈ 154 µM) | > 100 | 50 (≈ 154 µM) | > 100 | 50 (≈ 154 µM) | > 100 | > 100 | 100 (≈ 307 µM) | > 100 | > 100 | > 100 | 12.5 (≈ 38.4 µM) | > 100 | 1.56 (≈ 4.8 µM) | MIC (Proteus vulgaris HX-19): 0.2 µg/mL (≈ 0.615 µM); MIC [19]: > 100 µg/mL; MIC [20]: > 100 µg/mL; MIC (Enterobacter cloacae 963): > 100 µg/mL; MIC [21]: 0.39 µg/mL (≈ 1.2 µM); MIC [22]: < 100 µg/mL; MIC [23]: 25 µg/mL (≈ 76.8 µM); MIC [24]: < 0.2 µg/mL; MIC [25]: 0.8 µg/mL (≈ 2.46 µM); MIC [26]: 3.13 µg/mL (≈ 9.62 µM)
4 | [C-]#[N+]C12CC3(/C=C/C(=O)OCC(=O)c4cccc(OC)c4)OC3C1O2 (stereo not drawn) [compound 7] | 0.39 (≈ 1.14 µM) | 6.25 (≈ 18.3 µM) | 0.39 (≈ 1.14 µM) | 12.5 (≈ 36.6 µM) | 25 (≈ 73.2 µM) | 12.5 (≈ 36.6 µM) | 3.13 (≈ 9.17 µM) | 25 (≈ 73.2 µM) | 6.25 (≈ 18.3 µM) | 12.5 (≈ 36.6 µM) | 6.25 (≈ 18.3 µM) | 12.5 (≈ 36.6 µM) | 25 (≈ 73.2 µM) | 6.25 (≈ 18.3 µM) | > 100 | > 100 | > 100 | 12.5 (≈ 36.6 µM) | 12.5 (≈ 36.6 µM) | 1.56 (≈ 4.57 µM) | MIC (Proteus vulgaris HX-19): 0.39 µg/mL (≈ 1.14 µM); MIC [19]: > 100 µg/mL; MIC [20]: > 100 µg/mL; MIC (Enterobacter cloacae 963): > 100 µg/mL; MIC [21]: 0.39 µg/mL (≈ 1.14 µM); MIC [22]: 12.5 µg/mL (≈ 36.6 µM); MIC [23]: 6.25 µg/mL (≈ 18.3 µM); MIC [24]: < 0.2 µg/mL; MIC [25]: 1.56 µg/mL (≈ 4.57 µM); MIC [26]: 3.13 µg/mL (≈ 9.17 µM)

— patent publication US4684664A, “Derivatives of β-(4-isocyano-1,2,3,4-diepoxycyclopentyl) acrylic acid” (Kureha Kagaku Kogyo Kabushiki Kaisha, priority 1984, dated 1987)
